Measured values published in patent US20260248809A1, “ESTRADIOL PRODRUGS AND METHODS OF USE THEREOF” (UNIVERSITY OF MARYLAND, BALTIMORE, priority 2022, published 2026).

Key:
Format in all cases: in vivo, mouse
male mice = assay: Acquisition, extinction and reinstatement of cued (Pavlovian) fear; conditions: non-stressed orchiectomized males, 10 mm silastic implant
Protocol: Determine the role of E2 in the normal acquisition, extinction, and reinstatement of cued (Pavlovian) fear responses in males. The effect of orchiectomy on the acquisition, extinction, and reinstatement of fear in non-stressed male animals is determined. It has previously been reported that orchiectomy enhances tone conditioned freezing in male mice, which was prevented with systemic testosterone administration. It has also been reported that orchiectomy delayed extinction of fear responses in male rats. The role of E2 is known in mediating fear responses, extinction, and related cognitive functions in female rodents. Fear conditioning takes place in Coulbourn shuttle boxes. The floor of the chambers consists of parallel rods connected to a Coulbourn shock source that delivers foot shocks. A speaker mounted on the top of the chamber delivers an acoustic conditioned stimulus (pure tone). […] Mice are placed in the chamber for a 3 min habituation period, wherein baseline freezing to the novel context will be assessed. […] One week later, mice are assessed for reinstatement of the conditioned fear. […] Time spent freezing across CS presentations during the extinction procedure (Days 2 and 3) is assessed with Coulbourn automated FreezeFrame software. […] If differences between the groups are detected, then whether these effects are due to altered shock sensitivity, are assessed.

mice = assay: Acoustic startle response after traumatic foot shock stress; conditions: acute foot shock stress, 10 mm silastic implant
Excerpt: Determine the role of E2 in traumatic stress-induced changes in startle response in males and females. Heightened startle reactivity is a DSM diagnostic criteria for PTSD. Individuals suffering from PTSD frequently report subjective elevations in startle response and objective studies have described increased startle reactivity in individuals with PTSD. Moreover, physiological startle response is correlated with the severity of self-reported hyperarousal symptom domains and attenuated by interventions that improve PTSD symptoms. In rodents, like humans, the startle response can be elicited by acoustic stimuli (acoustic startle response, ASR) and involves eyelid closure and skeletal muscle contractions. While ASR is frequently assessed via the eye blink reflex in humans, it can be accurately assayed via whole-body movements in rodents. Importantly, elevated ASR has been reported in rodents following traumatic stress, including electrical shock and social defeat stress. ASR is utilized as a measure of hyperarousal in mice following traumatic stress. Similar to previously described methods, ASR is assessed following acute foot shock stress. Baseline ASR is assessed over 10 startle stimuli (110 dB, pseudo-randomized average inter-stimulus interval of 30 sec). […] Changes in ASR are measured 24 hours after shock using the same startle protocol. […]

gonadectomized mice = assay: Inescapable foot shock stress followed by female urine preference; conditions: 10 mm silastic implant; for stress-induced female urine preference deficits: orchiectomized males, inescapable foot shock
Protocol: Determine effects of E2 on gonadectomy-induced susceptibility to inescapable traumatic shock stress in males and females. Most of these experiments assess the effects of social defeat stress. In this experiment the effects of an alternative type of stress-inescapable foot shocks are assessed—to determine whether the observed biological effects of E2 are stress specific. […] The effects of this stress on maladaptive behaviors and their possible reversal by testosterone and E2 are assessed. The following groups of mice are used for this experiment: (1) Sham Surgery+empty silastic tube; (2) ORX+empty silastic tube; (3) Sham Surgery+testosterone (10 mm) containing silastic tube; (4) ORX+testosterone (10 mm) containing silastic tube; (5) Sham Surgery+E2 (10 mm) containing silastic tube; (6) ORX+E2 (10 mm) containing silastic tube. Mice are exposed to inescapable foot shock (0.3 mA shocks; 180 shocks at 15 sec intervals) in a two-chambered shuttle box with a permanent divider in place. Controls are placed in the same chambers but will not receive shocks. Twenty-four hours later mice are subsequently tested for social interaction and female urine preference. As a comparison to male results, a similar experiment is conducted in females with the following groups: (1) Sham Surgery+empty silastic tube; (2) OVX+empty silastic tube; (3) Sham Surgery+E2 (10 mm) containing silastic tube; (4) OVX+E2 (10 mm) containing silastic tube. It is predicted that the effects of orchiectomy in males are reproduced to enhance stress-induced decreases in female urine preference deficits, which will be prevented by both testosterone and E2.

| Compound | orchiectomy-enhanced fear conditioning and reduced rate of extinction (male mice) | increased startle after stress+orchiectomy (mice) | stress-induced female urine preference deficits (gonadectomized mice) | effects of ovariectomy plus foot shock stress (gonadectomized mice; ovariectomized females) |
| --- | --- | --- | --- | --- |
| C[C@]12CC[C@@H]3c4ccc(O)cc4CC[C@H]3[C@@H]1CC[C@@H]2O [Example E2, 17β-Estradiol] | reverse this effect | recoverable | prevented | prevented by the replacement of E2 |
| C[C@]12CC[C@H]3[C@@H](CCC4=CC(=O)CC[C@@]43C)[C@@H]1CC[C@@H]2O [Testosterone, testosterone] | prevented by testosterone | recoverable | prevented |  |
